From patent US8466172B2, “Stabilization of hypoxia inducible factor (HIF) alpha” (FibroGen, Inc., priority 2001, dated 2013)
One block for each molecule: values may come before it.

Experiments:
[1] = test system: vascular endothelial growth factor (VEGF); experiment: VEGF expression in conditioned media, QUANTIKINE immunoassay; assay type: cell-based, human; settings: HFF, 293A and Hep3B cells
Protocol: When cell layers reached confluence, the media was replaced with OPTI-MEM media (Invitrogen Life Technologies, Carlsbad Calif.) and cell layers were incubated for approximately 24 hours in 20% O2, 5% CO2 at 37° C. Compound of the invention (one of compounds A to O) or DMSO (0.5 to 1%) was then added to existing medium, and incubation was continued overnight.
Conditioned media collected from cell cultures grown as in Example 1 was analyzed for vascular endothelial growth factor (VEGF) expression using a QUANTIKINE immunoassay (R&D Systems) according to the manufacturer's instructions. […] Values on the y-axis represent fold-induction relative to control and are reported on a log2 scale, such that a value of 1 represents 2-fold induction.

[2] = test system: vascular endothelial growth factor (VEGF) gene expression; experiment: VEGF gene expression in liver and kidney, quantitative PCR; assay type: in vivo; settings: mouse, 200 mg/kg/day oral gavage, 2.5 days, four hours after final dose
Protocol: Four hours after the final dose, animals were anesthetized with isoflurane and a blood sample was collected from the abdominal vein. […] The mice were then sacrificed and approximately 150 mg of liver and each kidney were isolated and stored in [sequence] solution (Ambion) at −20° C.
RNA isolation was carried out using the following protocol. Tissue slices were cut into small pieces, 1.75 ml of RLT lysis buffer (RNEASY kit; Qiagen) was added, and the pieces were homogenized for about 20 seconds using a rotor-stator POLYTRON homogenizer (Kinematica, Inc., Cincinnati Ohio). […] The RNA was eluted into 80 μL of water and quantitated with RIBOGREEN reagent (Molecular Probes, Eugene Oreg.). […] The absorbance at 260 and 280 nm was measured to determine RNA purity and concentration.
cDNA synthesis was performed using 1W random hexamer primers, 1 μg of total RNA, and OMNISCRIPT reverse transcriptase (Qiagen), according to the manufacturer's instructions. […] Analysis of the relative level of vascular endothelial growth factor (VEGF) gene expression was performed by quantitative PCR using a [sequence] […]
The relative level of 18S ribosomal RNA gene expression was measured as a control. Quantitative PCR was performed using a [sequence] […]

[3] = test system: Wistar rats, myocardial infarction; settings: one week after surgery
Protocol: Male Wistar rats (100-110 g), aged 4-5 weeks, were kept on a regular diet and a 12 hour day-night cycle. […] Animals were treated for two days prior to surgery and for one week following surgery. […] Ligation of the left anterior descending coronary artery was performed in artificially ventilated animals after left thoracotomy. Animals were sacrificed one week after surgery and echocardiography was performed. Fractional shortening, end-diastolic diameters, and end-systolic diameters were determined in a blinded fashion.

aldolase = settings: 293A cells
Protocol: Alternatively, human cells derived from adenovirus-transformed fetal kidney epithelium (293A) were cultured in DMEM, 5% FBS, 1% Penicillin-Streptomycin at 37° C. and 10% CO2. […] Culture supernatant was then removed, the plates were placed on ice, lysis buffer (LB)-1 was added and the cells were harvested by scraping. The scraped cells were collected and incubated for 15 minutes on ice followed by centrifugation at 3000 g for 5 minutes at 4° C. The supernatant, which represents the cytosolic fraction, was collected and cytosolic proteins were separated under denaturing and reducing conditions using SDS polyacrylamide gels that were loaded with equal amounts of protein per lane.
Gel electrophoresis was conducted at 150 V for 2 hours, and after SDS-PAGE the proteins were transferred to a PVDF membrane for 1.5 hours at 400 mA at 4° C. The membrane was then incubated in blocking buffer, washed once with T-TBS, and then anti-aldolase antibody diluted to working concentration in blocking buffer was added and the blots were incubated over night with gentle agitation at 4° C. The membrane was then washed 4 times with T-TBS, followed by incubation for one hour at room temperature with blocking buffer containing labeled secondary antibody. The membrane was then washed four times with T-TBS. […]

[4] = test system: Wistar rats, toxic-ischemic liver injury; experiment: Toxic-ischemic liver injury (CCl4); assay type: in vivo, rat; settings: 9 weeks
Protocol: The model of toxic-ischemic liver injury was described in Bickel et al. (supra). Briefly, male Wistar rats (212-320 g) either received 1 ml/kg carbon tetrachloride (CCl4) in olive oil (1:1) by gavage twice weekly for nine weeks (n=140) or received no treatment (controls; n=10). Additionally, a group of animals receiving CCl4 (n=60) also received compound P. The compound was administered by intraperitoneal injection twice daily at 60 mg compound/2 ml saline/kg body weight. After 9 weeks, the animals were sacrificed and the liver was weighed. Bilirubin, alanine transaminase, alkaline phosphatase, albumin, and total bile acids in serum were determined using commercially available kits.

[5] = test system: Wistar rats, toxic-ischemic liver injury; settings: CCl4 + CPD, 9 weeks, 60 mg/kg intraperitoneal twice daily; cited from earlier work

expression of aldolase over time (FIG. 4B) (aldolase): increased expression of aldolase
Structure (SMILES): O=C(O)CNC(=O)c1nc(Cl)c2ccccc2c1O [Compound B, N-((1-chloro-4-hydroxy-isoquinoline-3-carbonyl)-amino)-acetic acid]
VEGF expression in conditioned media (FIG. 4A) [1]: increase in VEGF expression
VEGF expression in kidney (FIG. 6A) [2]: increased VEGF expression
increase in end-diastolic diameter over sham operated animals [3]: 18%
increase in left ventricular end-systolic diameter over sham operated animals [3]: no increase
fractional shortening (FIG. 12A) ([3]; 50 mg/kg oral gavage two times per day from two days prior to surgery): 41%

Structure (SMILES): COC(=O)CNC(=O)c1nc(Cl)c2cc(OCc3ccccc3)ccc2c1O [Compound K, ((7-benzyloxy-1-chloro-4-hydroxy-isoquinoline-3-carbonyl)-amino)-acetic acid methyl ester]
VEGF expression in conditioned media (FIG. 4A) [1]: increase in VEGF expression

Structure (SMILES): COc1cccnc1C(=O)NCC(=O)O [Compound P, [(3-methoxy-pyridine-2-carbonyl)-amino]-acetic acid]
decrease in serum level of ALT in the treated group relative to the untreated group [4]: 43%
decrease in serum level of AP in the treated group relative to the untreated group [4]: 65%
decrease in serum level of BR in the treated group relative to the untreated group [4]: 64%
decrease in serum level of tBA in the treated group relative to the untreated group [4]: 65%
ALT (serum alanine transaminase) [5]: 59.0 ± 29.5 U/L
AP (serum alkaline phosphatase) [5]: 195 ± 72.7 U/L
BR (serum bilirubin) [5]: 2.83 ± 2.21 µmol/L
BW (body weight) [5]: 373 ± 38.9 g
tBA (serum total bile acids) [5]: 40.8 ± 51.4 µmol/L

Structure (SMILES): CC(C)Oc1ccc2nc(C(=O)NCC(=O)O)c(O)cc2c1 [Compound H, N-((3-hydroxy-6-isopropoxy-quinoline-2-carbonyl)-amino)-acetic acid]
VEGF expression in conditioned media (FIG. 4A) [1]: increase in VEGF expression

Structure (SMILES): COc1cc2cccnc2c2[nH]cc(C(=O)O)c(=O)c12 [Compound Q, 5-methoxy-4-oxo-1,4-dihydro-[1,10]phenanthroline-3-carboxylic acid]
VEGF expression in conditioned media (FIG. 4A) [1]: increase in VEGF expression

Structure (SMILES): O=[N+]([O-])c1ccnc2c(O)cccc12 [Compound E, 4-nitro-quinolin-8-ol]
VEGF expression in kidney (FIG. 6A) [2]: increased VEGF expression

Structure (SMILES): COc1ccc(CCN(CCC(=O)NO)S(=O)(=O)c2ccc(NC(=O)N(Cc3ccccc3)Cc3ccccc3)cc2)cc1 [Compound C, 3-{[4-(3,3-dibenzyl-ureido)-benzenesulfonyl]-[2-(4-methoxy-phenyl)-ethyl]-amino}-N-hydroxy-propionamide]
VEGF expression in conditioned media (FIG. 4A) [1]: increase in VEGF expression

Structure (SMILES): O=C(O)CNC(=O)c1nc(Cl)c2cc(OCc3ccccc3)ccc2c1O [Compound L, N-((7-benzyloxy-1-chloro-4-hydroxy-isoquinoline-3-carbonyl)-amino)-acetic acid]
VEGF expression in conditioned media (FIG. 4A) [1]: increase in VEGF expression
